Entries after “also recorded” stand apart in the source; their conditions may differ.
Assays:
JNK2 = target: T1, JNK2 (Homo sapiens, UniProt P45984); assay: Protein kinase profiling, Mobility Shift Assay (Carna Biosciences); type: biochemical; details: read-out: % Inhibition at 1.0 μM 14
T1 construct: purchased Carna Biosciences
Experimental: (§1) Protein kinase profiling of compound 14 was executed by Carna Biosciences. Briefly, compound 14 was prepared by dissolving it in dimethyl sulfoxide (DMSO) and then further diluting it in DMSO to a concentration of […]. That stock solution was further diluted 25-fold with kinase assay buffer (20 mM HEPES, 0.01% Triton X-100, 2 mM DTT, pH 7.5) to make the final 1 μM compound 14 solution. Reference compounds for the assay controls were prepared similarly. The off-chip Mobility Shift Assay (MSA) was prepared with 5 μL of 4× compound solution, 5 μL of 4× substrate/ATP/metal solution, and 10 μL of 2× kinase solution, prepared with assay buffer (20 mM HEPES, 0.01% Triton X-100, 2 mM DTT, pH 7.5). The components were mixed and incubated in a polypropylene 384-well microplate for 1 h or 5 h at room temperature, depending on the kinase being tested. 60 μL of termination buffer (QuickScout Screening Assist MSA; Carna Biosciences) was added to the well to stop the reactions, and the mixture was applied to a LabChip3000 system (Caliper Life Sciences. The product and substrate peptide peaks were separated and quantitated. The kinase reactions were evaluated by the product ratio, calculated from the peak heights of the product (P) and substrate (S) peptides (P/(P + S)). Product ratio values for the control reaction were set as 0% inhibition, and the readout value of the background (no kinase added) was set as 100% inhibition. The percent inhibition of each test solution was then calculated as reported in Figure A. The phylogenetic tree was generated using KinMap at https://bmcbioinformatics.biomedcentral.com/articles/10.1186/s12859-016-1433-7.

CSK = target: T2, CSK (Homo sapiens, UniProt P41240); assay: as above; type: biochemical; details: read-out: % Inhibition at 1.0 μM 14
T2 construct: purchased Carna Biosciences
Experimental: as §1

IGF1R = target: T3, IGF1R (Homo sapiens, UniProt P08069); assay: as above; type: biochemical; details: read-out: % Inhibition at 1.0 μM 14
T3 construct: purchased Carna Biosciences
Experimental: as §1

FGFR1 = target: T4, FGFR1 (Homo sapiens, UniProt P11362); assay: as above; type: biochemical; details: read-out: % Inhibition at 1.0 μM 14
T4 construct: purchased Carna Biosciences
Experimental: as §1

Erk2 = target: T5, Erk2 (Homo sapiens, UniProt P28482); assay: as above; type: biochemical; details: read-out: % Inhibition at 1.0 μM 14
T5 construct: purchased Carna Biosciences
Experimental: as §1

KDR = target: T6, KDR (Homo sapiens, UniProt P35968); assay: as above; type: biochemical; details: read-out: % Inhibition at 1.0 μM 14
T6 construct: purchased Carna Biosciences
Experimental: as §1

LCK = target: T7, LCK (Homo sapiens, UniProt P06239); assay: as above; type: biochemical; details: read-out: % Inhibition at 1.0 μM 14
T7 construct: purchased Carna Biosciences
Experimental: as §1

[1] = system: inositol phosphate levels in U251-MG cells; assay: 3H-inositol metabolic labeling and HPLC of inositol phosphates; type: cell-based, human; details: 10 μM, vs DMSO
Experimental: Human U251-MG glioblastoma cells (ECACC 09063001) were grown in DMEM supplemented with 10% FBS. The medium was changed to inositol-free DMEM, and cells were inositol-starved for 1–3 days. Cells were maintained in inositol-free DMEM medium, treated with the indicated inhibitor or DMSO for 1–2.5 h, and supplemented with 100 μCi ^3H-inositol (PerkinElmer) for 48 or 72 h, as indicated on each figure. Cells were then washed in PBS and lysed in 200 μL HCl (0.5 M), 250 μL of MeOH was added to each well of a 6-well plate (approximately 10^6 cells), followed by 125 μL of 2 M KCl. Lysates were scraped and sonicated on ice for three 1 min cycles. Inositol phosphate (IP) extracts were cleaned of lipids by adding 250 μL of CHCl3, vortexing and centrifuging samples for 2 min at 5000 rpm to separate upper aqueous and lower organic phases, upper phase contains soluble IPs. This extraction was repeated once. Samples were dried in a SpeedVac, resuspended in 10 mM ammonium phosphate (pH= 3.5), and filtered. HPLC separation and detection of the inositol species on the upper phase used a Partisphere SAX 4.6 mm × 250 mm column, eluted with 10 mM (buffer A) to 1.3 M (buffer B) ammonium phosphate (pH = 3.8) and online flow scintillation analyzer (FSA, PerkinElmer). Elution of [^32P]-labeled IP4, IP5, and IP6 standards confirmed the identity of each peak off the HPLC. Quantification represents three biologically independent metabolic labeling samples with error representing the standard deviation of the mean.

[2] = Pharmacokinetic studies in mice; type: in vivo, male CD1 mice
Experimental: All the procedures related to animal handling, care, and treatment in this study were performed according to guidelines approved by the Institutional Animal Care and Use Committee (IACUC) of Pharmaron (PK-R-06012023 and PK-M-07182023), following the guidance of the Association for Assessment and Accreditation of Laboratory Animal Care (AAALAC). A group of 3 male CD1 mice (2 for exploratory PK) were dosed intravenously (IV) or intraperitoneally (IP) with a solution formulation of the tested compounds in 10% NMP, 5% Solutol in normal saline (v/v/v, 10:5:85). From each mouse, blood samples ([…]) were collected from the orbital vein such that samples were obtained at 0.083, 0.25, 0.5, 1, 2, 4, 8, and 24 h post dose. At each time point, blood samples were collected from three mice in labeled microcentrifuge tubes containing EDTA-K2 as an anticoagulant. Plasma samples were separated by centrifugation of whole blood and stored at −75 ± 15 °C until bioanalysis. All samples were processed for analysis by precipitation using acetonitrile (ACN) and analyzed with a fit-for-purpose LC/MS/MS method (the below quantifiable limit (BLOQ) was 5.0 ng/mL). Pharmacokinetic parameters were calculated by a noncompartmental analysis model using WinNonlin 8.3.

[3] = system: SF-1 target genes in HEK293 cells bearing tetracycline-inducible SF-1; assay: RT-qPCR analysis of SF-1 target genes; type: cell-based, human; design: key to relative NR0B2 expression vs DMSO + TET control / relative StAR expression vs DMSO + TET control: ns = not significant; *p<0.05; ****p<0.0001; details: for relative CYP11A1 expression vs DMSO + TET control / relative NR0B2 expression vs DMSO + TET control / relative StAR expression vs DMSO + TET control: 24 h, HEK293 Tet-inducible SF-1
S6Kb = assay: Protein kinase profiling, Mobility Shift Assay (Carna Biosciences); type: biochemical, human
Experimental: Protein kinase profiling of compound 14 was executed by Carna Biosciences. Briefly, compound 14 was prepared by dissolving it in dimethyl sulfoxide (DMSO) and then further diluting it in DMSO to a concentration of 25 μM. That stock solution was further diluted 25-fold with kinase assay buffer (20 mM HEPES, 0.01% Triton X-100, 2 mM DTT, pH 7.5) to make the final 1 μM compound 14 solution. Reference compounds for the assay controls were prepared similarly. The off-chip Mobility Shift Assay (MSA) was prepared with 5 μL of 4× compound solution, 5 μL of 4× substrate/ATP/metal solution, and 10 μL of 2× kinase solution, prepared with assay buffer (20 mM HEPES, 0.01% Triton X-100, 2 mM DTT, pH 7.5). The components were mixed and incubated in a polypropylene 384-well microplate for 1 h or 5 h at room temperature, depending on the kinase being tested. […]

[4] = male, CD1, mouse, plasma, IV, dose 2.75 mg/kg

T6 sequence (P35968 20-1356): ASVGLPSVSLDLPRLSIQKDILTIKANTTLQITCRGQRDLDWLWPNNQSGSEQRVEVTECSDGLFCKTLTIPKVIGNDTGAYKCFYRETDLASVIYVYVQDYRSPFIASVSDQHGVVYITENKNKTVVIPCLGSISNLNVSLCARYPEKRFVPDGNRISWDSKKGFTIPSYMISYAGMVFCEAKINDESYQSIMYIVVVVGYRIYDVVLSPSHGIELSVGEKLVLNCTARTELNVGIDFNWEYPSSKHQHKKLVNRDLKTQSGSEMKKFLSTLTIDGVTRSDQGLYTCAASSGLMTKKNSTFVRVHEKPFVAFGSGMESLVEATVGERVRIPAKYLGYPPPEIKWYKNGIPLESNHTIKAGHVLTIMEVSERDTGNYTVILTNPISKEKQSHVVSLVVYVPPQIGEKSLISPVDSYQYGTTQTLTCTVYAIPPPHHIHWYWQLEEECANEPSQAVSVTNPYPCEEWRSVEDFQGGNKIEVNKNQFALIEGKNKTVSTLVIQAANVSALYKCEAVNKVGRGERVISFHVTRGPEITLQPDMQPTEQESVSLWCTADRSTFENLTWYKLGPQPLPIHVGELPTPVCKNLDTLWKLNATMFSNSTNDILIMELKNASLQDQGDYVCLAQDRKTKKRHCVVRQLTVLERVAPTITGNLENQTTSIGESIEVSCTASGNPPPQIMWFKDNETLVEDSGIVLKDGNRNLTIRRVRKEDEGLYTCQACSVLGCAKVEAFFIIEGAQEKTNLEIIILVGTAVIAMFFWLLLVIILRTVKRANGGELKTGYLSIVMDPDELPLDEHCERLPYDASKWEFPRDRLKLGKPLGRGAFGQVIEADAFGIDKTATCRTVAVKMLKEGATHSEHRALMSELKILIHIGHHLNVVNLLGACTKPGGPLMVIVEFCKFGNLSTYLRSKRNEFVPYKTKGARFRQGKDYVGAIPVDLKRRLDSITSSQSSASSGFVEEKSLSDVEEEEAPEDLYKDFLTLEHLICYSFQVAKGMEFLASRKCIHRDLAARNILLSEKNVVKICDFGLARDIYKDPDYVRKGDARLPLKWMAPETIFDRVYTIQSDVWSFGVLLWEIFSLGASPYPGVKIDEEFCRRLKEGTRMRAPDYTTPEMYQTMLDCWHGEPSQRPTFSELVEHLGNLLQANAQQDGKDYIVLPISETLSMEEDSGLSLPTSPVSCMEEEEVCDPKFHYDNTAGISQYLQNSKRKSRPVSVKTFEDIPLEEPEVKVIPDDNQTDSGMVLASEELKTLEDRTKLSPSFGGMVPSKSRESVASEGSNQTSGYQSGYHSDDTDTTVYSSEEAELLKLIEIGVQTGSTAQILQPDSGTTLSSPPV
T5 sequence (P28482 whole entry): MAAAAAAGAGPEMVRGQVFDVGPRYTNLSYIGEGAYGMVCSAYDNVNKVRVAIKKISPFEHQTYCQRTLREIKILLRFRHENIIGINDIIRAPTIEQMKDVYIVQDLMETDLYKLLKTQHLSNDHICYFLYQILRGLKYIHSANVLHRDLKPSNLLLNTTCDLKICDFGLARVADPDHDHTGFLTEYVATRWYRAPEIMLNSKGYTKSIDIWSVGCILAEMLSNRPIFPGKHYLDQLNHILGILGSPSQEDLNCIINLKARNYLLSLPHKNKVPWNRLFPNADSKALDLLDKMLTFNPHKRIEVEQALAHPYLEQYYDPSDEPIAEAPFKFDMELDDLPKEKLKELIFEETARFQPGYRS
T7 sequence (P06239 whole entry): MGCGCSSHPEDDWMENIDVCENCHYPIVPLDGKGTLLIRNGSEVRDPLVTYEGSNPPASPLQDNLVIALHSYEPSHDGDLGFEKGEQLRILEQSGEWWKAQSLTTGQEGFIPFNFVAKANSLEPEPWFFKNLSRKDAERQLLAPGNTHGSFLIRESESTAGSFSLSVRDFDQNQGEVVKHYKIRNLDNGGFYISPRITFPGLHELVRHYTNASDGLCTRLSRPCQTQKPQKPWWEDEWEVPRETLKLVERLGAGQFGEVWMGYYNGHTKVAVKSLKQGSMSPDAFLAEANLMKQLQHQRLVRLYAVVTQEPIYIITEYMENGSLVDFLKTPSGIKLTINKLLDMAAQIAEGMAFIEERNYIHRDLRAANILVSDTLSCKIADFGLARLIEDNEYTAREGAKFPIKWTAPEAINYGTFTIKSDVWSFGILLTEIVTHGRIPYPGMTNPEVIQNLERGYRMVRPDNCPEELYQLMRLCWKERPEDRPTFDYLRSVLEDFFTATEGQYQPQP
T4 sequence (P11362 22-822): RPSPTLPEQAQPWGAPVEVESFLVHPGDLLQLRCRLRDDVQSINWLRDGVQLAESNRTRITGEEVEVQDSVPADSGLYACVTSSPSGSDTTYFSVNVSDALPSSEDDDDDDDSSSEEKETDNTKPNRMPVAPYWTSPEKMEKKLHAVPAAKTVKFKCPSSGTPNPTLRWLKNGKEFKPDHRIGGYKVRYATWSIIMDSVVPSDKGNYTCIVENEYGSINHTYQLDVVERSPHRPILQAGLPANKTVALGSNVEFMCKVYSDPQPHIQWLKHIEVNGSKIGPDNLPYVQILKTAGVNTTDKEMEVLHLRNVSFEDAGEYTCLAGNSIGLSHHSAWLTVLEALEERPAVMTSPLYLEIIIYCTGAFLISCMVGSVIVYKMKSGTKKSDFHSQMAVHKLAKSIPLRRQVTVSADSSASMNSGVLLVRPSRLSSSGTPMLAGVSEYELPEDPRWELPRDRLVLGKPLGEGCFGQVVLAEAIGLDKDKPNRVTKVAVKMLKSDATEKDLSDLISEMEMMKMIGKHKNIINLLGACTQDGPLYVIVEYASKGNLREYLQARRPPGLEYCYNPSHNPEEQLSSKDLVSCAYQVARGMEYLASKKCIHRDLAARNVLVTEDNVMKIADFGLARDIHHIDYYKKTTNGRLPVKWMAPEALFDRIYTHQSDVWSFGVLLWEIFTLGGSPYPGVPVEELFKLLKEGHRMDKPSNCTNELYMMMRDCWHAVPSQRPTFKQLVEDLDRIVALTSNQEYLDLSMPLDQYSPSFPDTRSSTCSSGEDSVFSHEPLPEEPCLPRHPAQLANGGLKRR
T3 sequence (P08069 31-1367): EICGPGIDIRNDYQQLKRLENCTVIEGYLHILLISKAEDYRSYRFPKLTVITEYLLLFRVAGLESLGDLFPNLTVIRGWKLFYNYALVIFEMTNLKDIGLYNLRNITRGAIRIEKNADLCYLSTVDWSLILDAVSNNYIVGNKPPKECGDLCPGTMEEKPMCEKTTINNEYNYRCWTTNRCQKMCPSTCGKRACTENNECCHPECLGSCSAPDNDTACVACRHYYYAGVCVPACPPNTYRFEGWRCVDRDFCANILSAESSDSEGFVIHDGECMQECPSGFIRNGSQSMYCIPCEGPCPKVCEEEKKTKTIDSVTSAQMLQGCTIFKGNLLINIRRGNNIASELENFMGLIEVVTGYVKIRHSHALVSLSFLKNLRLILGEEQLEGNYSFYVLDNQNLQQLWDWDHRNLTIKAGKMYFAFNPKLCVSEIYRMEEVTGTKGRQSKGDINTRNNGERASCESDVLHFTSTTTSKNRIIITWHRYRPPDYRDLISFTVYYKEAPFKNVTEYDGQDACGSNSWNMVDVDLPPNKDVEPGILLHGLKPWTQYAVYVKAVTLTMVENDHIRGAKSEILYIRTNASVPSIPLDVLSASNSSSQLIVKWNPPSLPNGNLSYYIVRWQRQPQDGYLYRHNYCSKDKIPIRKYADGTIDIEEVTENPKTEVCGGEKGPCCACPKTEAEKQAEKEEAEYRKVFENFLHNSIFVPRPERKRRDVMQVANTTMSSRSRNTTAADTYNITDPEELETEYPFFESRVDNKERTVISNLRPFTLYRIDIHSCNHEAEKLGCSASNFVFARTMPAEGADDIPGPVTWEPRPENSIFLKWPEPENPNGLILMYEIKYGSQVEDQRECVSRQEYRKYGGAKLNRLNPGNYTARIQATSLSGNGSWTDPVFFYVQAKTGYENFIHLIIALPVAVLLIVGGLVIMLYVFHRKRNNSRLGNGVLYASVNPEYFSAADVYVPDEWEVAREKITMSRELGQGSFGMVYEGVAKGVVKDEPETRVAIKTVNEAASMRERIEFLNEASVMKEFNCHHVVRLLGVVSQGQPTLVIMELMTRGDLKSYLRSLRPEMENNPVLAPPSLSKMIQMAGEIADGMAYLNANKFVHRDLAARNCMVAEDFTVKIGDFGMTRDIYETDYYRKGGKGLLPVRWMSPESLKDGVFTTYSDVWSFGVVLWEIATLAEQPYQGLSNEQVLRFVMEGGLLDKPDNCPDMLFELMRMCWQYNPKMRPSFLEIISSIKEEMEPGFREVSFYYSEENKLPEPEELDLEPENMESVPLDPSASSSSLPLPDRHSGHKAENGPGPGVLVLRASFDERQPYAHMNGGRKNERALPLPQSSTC
T1 sequence (P45984 whole entry): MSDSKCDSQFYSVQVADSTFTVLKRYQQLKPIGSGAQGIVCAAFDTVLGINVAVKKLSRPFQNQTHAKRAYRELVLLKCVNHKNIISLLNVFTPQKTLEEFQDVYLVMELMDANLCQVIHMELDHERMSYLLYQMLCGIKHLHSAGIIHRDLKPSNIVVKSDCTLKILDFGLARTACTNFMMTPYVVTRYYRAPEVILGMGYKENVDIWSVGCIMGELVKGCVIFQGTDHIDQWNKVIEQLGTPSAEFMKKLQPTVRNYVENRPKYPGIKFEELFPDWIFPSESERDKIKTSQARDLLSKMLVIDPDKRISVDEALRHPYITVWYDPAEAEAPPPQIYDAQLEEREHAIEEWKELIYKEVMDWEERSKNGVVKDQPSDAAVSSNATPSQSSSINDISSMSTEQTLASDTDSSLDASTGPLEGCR

inhibition at 1 µM (JNK2): 7.7% | inhibition at 1 µM (CSK): 5.5% | inhibition at 1 µM (IGF1R): 1.7% | inhibition at 1 µM (FGFR1): 40.5% | inhibition at 1 µM (Erk2): -2.2% | inhibition at 1 µM (KDR): ≥ 75% | inhibition at 1 µM (LCK): 32.7% | Vss (L/kg) ([2]; IV, dose 2.75 mg/kg): increased | AUC(0-t) ([2]; male, CD1, mouse, plasma, 10 mg/kg via IV and IP administration (route of this value not stated), n = 3): 8.26 µM·h | AUC(0-t) [2, 4]: 4.6 µM·h | Cmax [2, 4]: 28.3 µM | clearance [2, 4]: 22.8 mL/min/kg | half-life [2, 4]: 1.95 h | Vd ([2]; male, CD1, mouse, plasma, IV, dose 2.75 mg/kg, read-out: Vss): 0.39 L/kg | bioavailability ([2]; male, CD1, mouse, plasma, intraperitoneal, 10 mg/kg, IP vs IV, n = 3): 82% | % Inhibition at 1.0 μM 14 (S6Kb): 9.4%
SMILES: c1cc(-c2onc3ccc(-c4nnn[nH]4)cc23)cc(C2CCN(C3CCC3)CC2)c1 [Compound 14, 3-(3-(1-Cyclobutylpiperidin-4-yl)phenyl)-5-(1H-tetrazol-5-yl)benzo[c]isoxazole]
decrease of InsP5 levels ([1]; 48 h): 50% | increase of InsP4 levels ([1]; 48 h): about 50% | level of InsP6 ([1]; 48 h): no change | IP6 levels ([1]; 72 h): did not change; also recorded: does not decrease | InsP4 levels ([1]; 72 h): rose slightly | InsP7 levels ([1]; 72 h): did not change; also recorded: does not decrease | relative CYP11A1 expression vs DMSO + TET control ([3]; 10 μM): * (*p<0.05) | relative NR0B2 expression vs DMSO + TET control ([3]; 10 μM): ns | relative StAR expression vs DMSO + TET control ([3]; 10 μM): ns | relative CYP11A1 expression vs DMSO + TET control ([3]; 30 μM): * (*p<0.05) | relative NR0B2 expression vs DMSO + TET control ([3]; 30 μM): * (*p<0.05) | relative StAR expression vs DMSO + TET control ([3]; 30 μM): * (*p<0.05) | relative CYP11A1 expression vs DMSO + TET control ([3]; 50 μM): **** (****p<0.0001) | relative NR0B2 expression vs DMSO + TET control ([3]; 50 μM): **** (****p<0.0001) | relative StAR expression vs DMSO + TET control ([3]; 50 μM): **** (****p<0.0001) | regulation of nuclear receptor SF-1 target genes ([3]; HEK293 cells with Tet-inducible SF-1, 24 h): can regulate these target genes; also recorded: able to regulate nuclear receptor SF-1 target genes; also recorded: did detect changes

— PMC12362615, “Design, Synthesis, and Cellular Characterization of a New Class of IPMK Kinase Inhibitors” (Journal of Medicinal Chemistry, 2025)
